Reference: patent publication US7700613B2, “Use of 7-t-butoxyiminomethylcamptothecin for the preparation of a medicament for the treatment of uterine neoplasms” (Sigma-Tau Farmaceutiche Riunite, S.p.A., priority 2004, dated 2010)

Columns and labels:
[1] = system: uterine cancers, both of the cervix and the endometrium; experiment: European phase I trial of gimatecan as single therapeutic agent in patients with advanced cancers; type: in vivo
Description: In the light of this preclinical evidence, a European phase I trial was conducted in which gimatecan was administered as a single therapeutic agent with different administration regimens. The patients studied were affected by advanced cancers for which curative or standard therapy was no longer indicated. Although the aim of the study was to assess the tolerability of the treatment with gimatecan, in the course of this clinical trial gimatecan produced a number of lasting objective clinical responses. Particularly worthy of mention are the responses of a number of patients with uterine cancers, both of the cervix and the endometrium, including forms which had received substantial previous treatments and presented metastatic disease.
These responses were subjected to two independent assessments by experts not taking part in the clinical trial, who confirmed the observations.

[2] = preclinical trials in vivo
Description: Gimatecan is a new anticancer compound that has shown a high therapeutic index in preclinical trials in vivo. Moreover, gimatecan is characterised by an anticancer activity that is maintained with different administration regimens, both intermittent and prolonged.

Compound: CC[C@@]1(O)C(=O)OCc2c1cc1n(c2=O)Cc2c-1nc1ccccc1c2/C=N/OC(C)(C)C [gimatecan, 7-terbutoxyiminomethylcamptothecin]
- objective clinical response ([1]; patients with uterine cancers (cervix and endometrium), incl. substantially pretreated and metastatic disease, assessed by computed tomography, confirmed by two independent assessments): partial responses
- reduction of the tumour lesion or lesions ([1]; responding patients with uterine cancers, diagnostic imaging such as computed tomography, definition of partial response): more than 30%
- therapeutic index [2]: high
